Experimental data as given in patent US20220162610A1, “NOVEL RNA TRANSCRIPT” (PTC Therapeutics, Inc., priority 2020, published 2022).

Key:
HTT pre-mRNA = experiment: Ampliseq/RNAseq analysis of intron 49 pseudoexon inclusion and HTT expression in different cell types; format: cell-based, human; conditions: for inclusion of intron 49 pseudoexon: HD fibroblasts, SH-SY5Y, TK6, MRC-5 cells
[1] = Unbound brain partition coefficient (Kp,uu) from mouse PK studies; format: in vivo; conditions: FVB (WT littermates of the BACHD colony), brain and plasma (unbound), oral, 10 mg/kg, average over animals of multiple mouse PK studies
Protocol: Oral pharmacokinetics (PK) of compounds was evaluated in WT littermates from the BACHD colony (FVB background). Mice were treated with test compounds (10 mg/kg) by oral gavage in 0.5% hydroxypropylmethyl cellulose (HPMC) with 0.1% Tween 80. Blood was collected by terminal cardiac puncture at specified time points (3 mice per time point) and centrifuged to generate plasma. Brain tissue was collected at the time of blood collection and homogenized in water. Protein was precipitated from plasma and brain homogenates with acetonitrile, methanol mixture (5:1, v:v) containing an internal standard that is a close analog of the test compounds. The mixture was filtered through an EMD Millipore MultiScreen™ Solvinert Filter Plate (MSRLN04, Millipore, Burlington, Mass.). Calibration standards were prepared in the same matrix and processed with the testing samples. Filtrates were analysed using Acquity ultra performance liquid chromatography (UPLC) system (Waters Corporation) tandem with Xevo TQ-s Spectrometer (Waters Corporation). Samples were injected on to a Waters UPLC Acquity BEH C18 Column (2.1*50 mm, 1.7 μm) maintained at 50° C. The injection volume was 3 μL and the mobile phase flow rate was 0.45 mL/min. The mobile phase consisted of 2 solvents: A) 0.1% formic acid in water and B) 0.1% formic acid in acetonitrile. The initial mobile phase started with 5% solvent B for 0.4 min, which was changed to […] over 0.8 min with linear gradients and then maintained at 95% solvent B for another 0.4 min. The drug concentrations were acquired and processed with MassLynx 4.1 software. PK parameters were estimated using the non-compartment method within Phoenix® WinNonlin® Build 8.1 (Certara USA, Inc., Princeton, N.J.).
The unbound brain partition coefficient (Kp,uu) is defined as the ratio between unbound brain free drug concentration and unbound plasma concentration. It was calculated using the following equation:
Kp,uu=Cbrain×fu,b/(Cplasma*fu,p)
Cbrain and Cplasma represent the compound concentrations in brain and plasma, respectively. fu,b and fu,p are the unbound fraction of each testing article in brain and plasma, respectively. Both fu,b and fu,p were determined in vitro using Pierce Rapid Equilibrium Dialysis (RED) device at Absorption System LLC (Exton, Pa.). Kp,uu was calculated individually for each animal from multiple mouse PK studies and the average values are reported here.

human HTT protein = experiment: Pharmacodynamic study in BACHD mice, HTT protein in tissues; format: in vivo
Protocol: Test mice were euthanised and brain, muscle (quadriceps), and blood samples were harvested 2 hours after the last dose on Day 20. Prior to analysis, crude total protein from brain and muscle tissue samples was prepared by sample lysis in MSD® assay buffer 1 (MSD®) with Complete™ Protease Inhibitor Cocktail added (Roche Diagnostics). Tissues were then homogenised using TissueLyser II (Qiagen) plus a 5 mm stainless steel bead. The lysate was clarified by centrifugation at 16,000×g for 20 minutes at 4° C. and the total protein concentration quantified with the Pierce™ BCA Protein Assay Kit (Thermo Scientific) according to the manufacturer's instructions. Whole blood was collected by cardiac puncture into EDTA collection tubes. An aliquot (100-200 μL) was added to 1.5 mL of eBioscience™ 1× Red Blood Cell Lysis Buffer (Thermo Fisher) and mixed well for 5 minutes before collecting the white blood cells (WBC) by centrifugation at 400×g. The supernatant was discarded, and the pellet of WBCs was frozen in liquid nitrogen and stored at −70° C. Brain and muscle sample lysates were analysed for hHTT and KRAS protein expression using the ECL protein assay (described previously); using the same method WBC samples were also analysed for hHTT expression but not KRAS.
Each tissue sample was tested in duplicate using the ECL protein assay and the average hHTT and KRAS readouts were calculated. The ratio of the mean hHTT signal to the mean KRAS signal (×1000) was determined for each test animal. The hHTT/KRAS ratio grand mean for the vehicle group of five test animals was calculated and the fold change relative to the vehicle grand mean was determined for each test animal in each group. Percent hHTT (% hHTT) lowering normalised to KRAS was determined for each test animal by subtracting the fold change from one and multiplying the difference by 100. Each experiment was performed twice yielding ten % hHTT lowering values for each treatment group. For each treatment group, the mean % hHTT lowering plus the standard error of the mean (SEM) was plotted as a bar graph. The % hHTT lowering in white blood cell samples was determined without KRAS using the grand hHTT vehicle mean instead of the grand hHTT/KRAS ratio vehicle mean.
BACHD: Pharmacodynamic (PD) evaluations were performed in BACHD mice aged 6-10 weeks. Compound or vehicle (HPMC/0.1% Tween 80) was administered to BACHD mice (5 female mice per group) once daily for 21 doses (QD×21) by oral gavage; dosing volumes were 10 mL/kg. Each animal was regularly observed for mortality or signs of pain, distress, or overt toxicity and findings were recorded. Body weights were recorded at the start and at least once a week during the course of the study. As described previously, tissue samples were obtained and prepared for ECL protein assay analysis from each animal as described previously.

MDR1 = target: T1, MDR1 (Homo sapiens, UniProt P08183); experiment: MDCK-MDR1 efflux assay; format: in vitro ADME; conditions: 10 μM, MDCK-MDR1 and MDCK-WT monolayers, 1 hour
T1 construct: host or cells: MDCK (Madin-Darby Canine Kidney) cells expressing MDR1
Protocol: The MDR1 efflux assay was conducted at Absorption System LLC (Exton, Pa.). Briefly, MDCK-MDR1 and MDCK-WT cell monolayers were grown to confluence on collagen-coated, microporous membranes in 12-well assay plates (Thermofisher). Compound solutions (10 μM) in permeability assay buffer (Hanks' balanced salt solution (HBSS), 10 mM HEPES, 15 mM glucose; pH of 7.4) were placed in the donor chamber. The receiver chamber was filled with assay buffer plus 1% BSA. Cell monolayers were dosed on the apical side (A-to-B) or basolateral side (B-to-A) and incubated at 37° C. (5% CO2, 100% relative humidity). Sampling from the donor chambers was performed at 0 and 1 hour; and from the receiver chambers at 1 hour. Each determination was performed in duplicate. The flux of lucifer yellow was also measured post-experimentally for each monolayer to ensure no damage was inflicted to the cell monolayers during the flux period. All samples were assayed by LC-MS/MS using electrospray ionisation. The apparent permeability (Papp) and percent recovery was determined using the following equation: […]
dCr/dt represents the slope of the cumulative receiver concentration versus time in μM/s; Vr is the volume of the receiver compartment (cm3); Vd is the volume of the donor compartment in (cm3); A is the area of the insert (1.13 cm2 for 12-well); C0 is the average measured concentration of the donor chamber at time zero in μM; Net Efflux ratio (ER) is defined as […].

T1 sequence (P08183 whole entry): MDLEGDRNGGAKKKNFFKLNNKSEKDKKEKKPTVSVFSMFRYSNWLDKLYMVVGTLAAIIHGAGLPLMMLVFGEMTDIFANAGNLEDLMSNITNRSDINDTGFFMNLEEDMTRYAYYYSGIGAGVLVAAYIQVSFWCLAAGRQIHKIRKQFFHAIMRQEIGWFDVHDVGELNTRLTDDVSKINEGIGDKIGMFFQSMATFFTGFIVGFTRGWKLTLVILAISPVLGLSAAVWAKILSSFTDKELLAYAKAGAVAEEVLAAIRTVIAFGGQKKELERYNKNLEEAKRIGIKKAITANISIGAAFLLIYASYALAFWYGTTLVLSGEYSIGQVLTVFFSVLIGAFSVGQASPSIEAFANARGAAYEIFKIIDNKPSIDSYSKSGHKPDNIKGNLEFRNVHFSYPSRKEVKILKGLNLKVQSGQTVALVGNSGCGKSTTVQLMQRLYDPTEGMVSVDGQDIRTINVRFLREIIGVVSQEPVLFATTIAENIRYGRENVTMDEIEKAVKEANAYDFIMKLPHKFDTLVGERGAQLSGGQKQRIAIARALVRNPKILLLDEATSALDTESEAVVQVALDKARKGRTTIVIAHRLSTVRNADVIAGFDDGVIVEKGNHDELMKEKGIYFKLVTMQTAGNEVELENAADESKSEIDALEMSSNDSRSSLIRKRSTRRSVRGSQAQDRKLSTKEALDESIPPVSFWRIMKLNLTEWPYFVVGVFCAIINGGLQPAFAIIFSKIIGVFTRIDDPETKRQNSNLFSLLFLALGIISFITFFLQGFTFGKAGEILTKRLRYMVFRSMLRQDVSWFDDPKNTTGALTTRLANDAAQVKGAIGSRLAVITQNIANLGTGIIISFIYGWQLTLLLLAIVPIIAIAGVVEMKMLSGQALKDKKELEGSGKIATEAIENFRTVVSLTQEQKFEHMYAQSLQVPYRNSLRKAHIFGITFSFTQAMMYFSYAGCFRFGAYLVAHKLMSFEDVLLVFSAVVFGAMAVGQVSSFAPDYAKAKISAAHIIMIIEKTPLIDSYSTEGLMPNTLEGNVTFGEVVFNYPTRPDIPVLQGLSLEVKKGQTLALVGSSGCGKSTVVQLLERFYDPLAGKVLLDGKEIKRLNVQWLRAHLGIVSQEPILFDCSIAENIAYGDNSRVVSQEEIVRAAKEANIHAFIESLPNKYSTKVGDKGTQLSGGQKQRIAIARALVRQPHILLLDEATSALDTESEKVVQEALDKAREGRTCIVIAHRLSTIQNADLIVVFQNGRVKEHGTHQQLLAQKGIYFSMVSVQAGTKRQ

Structure (SMILES) | HTT gene expression quantified using RNAseq (FPKM) (HTT pre-mRNA; 100 nM, SHSY5Y cells (HTT-C2), TK6 cells (HTT-C3)) | inclusion of intron 49 pseudoexon (HTT pre-mRNA) | Kp uu [1] | time for protein expression to return to control levels after treatment cessation (human HTT protein; 10 mg/kg, brain) [days] | time at which maximal reductions in HTT levels were achieved (human HTT protein; 10 mg/kg, brain, time course 4-63 days) [days] | lowering of HTT protein throughout the whole brain (human HTT protein; 10 mg/kg, incl. striatum and cortex) [%] | HTT reduction in blood cells, muscle, heart, liver and kidney (human HTT protein; at doses required to achieve 50% HTT lowering in the brain) [%] | HTT levels within brain tissue (human HTT protein; daily oral administration, 3 or 10 mg/kg) | HTT protein within peripheral tissues (human HTT protein; oral administration) | NET MDR1 ER (MDR1) | HTT protein within the brain and peripheral tissues (human HTT protein; BACHD mice)
CC1(C)CC(Oc2ccc(-c3ccc(-c4cn[nH]c4)cc3O)nn2)CC(C)(C)N1 [HTT-C2] | reduced HTT gene expression | induced the inclusion of an Intron 49 pseudoexon | 0.179 | ≤ 10 | ≤ 21 | > 50 | > 90 | dose-dependent reduction of HTT levels within brain tissue | dose dependently lowered HTT protein within peripheral tissues |  | 
CCN1CCC(c2cc(C)c3nc(-c4ccc5nn(C)cc5c4)cc(=O)n3c2)CC1 [HTT-D1] |  |  | 0.242 |  |  |  |  |  |  | 11.8 | 
CCN1CCC(c2cc3c(F)cc(-c4cc(C)c5nc(C)cn5n4)cc3nn2)CC1 [HTT-D3] |  | induced the inclusion of an Intron 49 pseudoexon | 0.472 |  |  |  |  |  |  | 7.10 | dose dependent and more equitable lowering of HTT protein
CC1(C)CC(Oc2ccc(-c3ccc(-c4ccnc(O)c4)cc3O)nn2)CC(C)(C)N1 [HTT-C1] |  | induced the inclusion of an Intron 49 pseudoexon | 0.084 |  |  |  |  |  |  | >62.7 | 
